ChEMBL document CHEMBL3352235, “Design, synthesis and biological evaluation of 17-arylmethylamine-17-demethoxygeldanamycin derivatives as potent Hsp90 inhibitors” (Eur J Med Chem, 2014)

How the values were obtained:
[1] = test system: MDA-MB-231; assay: cells; details: Homo sapiens, MDA-MB-231, 72 h
Description: Cytotoxicity against human MDA-MB-231 cells after 72 hrs by MTT assay

[2] = test system: LNCaP; assay: cells; details: Homo sapiens, 72 h
Description: Cytotoxicity against human LNCAP cells after 72 hrs by MTT assay

[3] = biological target: Heat shock protein HSP 90-alpha (Homo sapiens, UniProt P07900); assay: Displacement of GA-FITC from human recombinant HSP90alpha ATP-binding site by fluorescence polarization assay
[4] = test system: MDA-MB-231; assay: Antitumor activity against human MDA-MB-231 cells xenografted in BALB/c mouse assessed as tumor volume at 10 mg/kg, iv dosed every 3 days for 15 days relative to untreated control; format: functional
[5] = test system: MDA-MB-231; assay: Antitumor activity against human MDA-MB-231 cells xenografted in BALB/c mouse assessed as reduction in tumor weight at 10 mg/kg, iv dosed every 3 days for 15 days; format: functional; details: read-out: GI
[6] = test system: Mus musculus; assay: Hepatotoxicity in Kunming mouse assessed as serum ALT level at 10 mg/kg, iv (reference value: 60.7 +/- 6.9 U/L); format: toxicity, organism-based; set-up: dose 10 mg/kg, route intravenous; details: in vivo
[7] = test system: Mus musculus; assay: Hepatotoxicity in Kunming mouse assessed as serum AST level at 10 mg/kg, iv (reference value: 197.2 +/- 11.2 U/L); format: toxicity, organism-based; set-up: dose 10 mg/kg, route intravenous; details: in vivo

Row | SMILES | IC50 [1] [nM] | IC50 [2] [nM] | IC50 [3] [nM] | T/C [4] [%] | inhibition in vivo at 10 mg/kg [5] [%] | Activity [6] [U/L] | Activity [7] [U/L]
1 | CO[C@H]1/C=C\C=C(/C)C(=O)NC2=CC(=O)C(NCc3cc(F)cc(F)c3)=C(C[C@@H](C)C[C@H](OC)[C@H](O)[C@@H](C)/C=C(\C)[C@@H]1OC(N)=O)C2=O | 350 | 1980 | – | – | – | – | –
2 | CO[C@H]1/C=C\C=C(/C)C(=O)NC2=CC(=O)C(NCc3cccc(C#N)c3)=C(C[C@@H](C)C[C@H](OC)[C@H](O)[C@@H](C)/C=C(\C)[C@@H]1OC(N)=O)C2=O | 450 | 1800 | – | – | – | – | –
3 | CO[C@H]1/C=C\C=C(/C)C(=O)NC2=CC(=O)C(NCc3cccc(Cl)c3)=C(C[C@@H](C)C[C@H](OC)[C@H](O)[C@@H](C)/C=C(\C)[C@@H]1OC(N)=O)C2=O | 380 | 8500 | – | – | – | – | –
4 | CO[C@H]1/C=C\C=C(/C)C(=O)NC2=CC(=O)C(NCc3ccc(O)cc3)=C(C[C@@H](C)C[C@H](OC)[C@H](O)[C@@H](C)/C=C(\C)[C@@H]1OC(N)=O)C2=O | 170 | 8480 | – | – | – | – | –
5 | COc1cc(CNC2=C3C[C@@H](C)C[C@H](OC)[C@H](O)[C@@H](C)/C=C(\C)[C@H](OC(N)=O)[C@@H](OC)/C=C\C=C(/C)C(=O)NC(=CC2=O)C3=O)ccc1O | 160 | 140 | – | – | – | – | –
6 | COc1ccc(CNC2=C3C[C@@H](C)C[C@H](OC)[C@H](O)[C@@H](C)/C=C(\C)[C@H](OC(N)=O)[C@@H](OC)/C=C\C=C(/C)C(=O)NC(=CC2=O)C3=O)c(OC)c1 | 330 | 3110 | – | – | – | – | –
7 | CO[C@H]1/C=C\C=C(/C)C(=O)NC2=CC(=O)C(NCc3ccc(C#N)cc3)=C(C[C@@H](C)C[C@H](OC)[C@H](O)[C@@H](C)/C=C(\C)[C@@H]1OC(N)=O)C2=O | 250 | 480 | – | – | – | – | –
8 | CO[C@H]1/C=C\C=C(/C)C(=O)NC2=CC(=O)C(NCc3ccc(C)cc3)=C(C[C@@H](C)C[C@H](OC)[C@H](O)[C@@H](C)/C=C(\C)[C@@H]1OC(N)=O)C2=O | 490 | > 10000 | – | – | – | – | –
9 | CO[C@H]1/C=C\C=C(/C)C(=O)NC2=CC(=O)C(NCc3cccc(N)c3)=C(C[C@@H](C)C[C@H](OC)[C@H](O)[C@@H](C)/C=C(\C)[C@@H]1OC(N)=O)C2=O | 560 | 180 | – | – | – | – | –
10 | COc1cc(CNC2=C3C[C@@H](C)C[C@H](OC)[C@H](O)[C@@H](C)/C=C(\C)[C@H](OC(N)=O)[C@@H](OC)/C=C\C=C(/C)C(=O)NC(=CC2=O)C3=O)cc(OC)c1OC | 640 | 2450 | – | – | – | – | –
11 | CO[C@H]1/C=C\C=C(/C)C(=O)NC2=CC(=O)C(NCc3ccc(Cl)cc3)=C(C[C@@H](C)C[C@H](OC)[C@H](O)[C@@H](C)/C=C(\C)[C@@H]1OC(N)=O)C2=O | 460 | 770 | – | – | – | – | –
12 | CCOC(=O)c1ccc(CNC2=C3C[C@@H](C)C[C@H](OC)[C@H](O)[C@@H](C)/C=C(\C)[C@H](OC(N)=O)[C@@H](OC)/C=C\C=C(/C)C(=O)NC(=CC2=O)C3=O)cc1 | 130 | 1340 | – | – | – | – | –
13 | CO[C@H]1/C=C\C=C(/C)C(=O)NC2=CC(=O)C(NCc3ccc(Cl)nc3)=C(C[C@@H](C)C[C@H](OC)[C@H](O)[C@@H](C)/C=C(\C)[C@@H]1OC(N)=O)C2=O | 80 | 510 | 1040 | 40 | 50 | 79.4 | 173.6
14 | CO[C@H]1/C=C\C=C(/C)C(=O)NC2=CC(=O)C(NCc3ccccc3Cl)=C(C[C@@H](C)C[C@H](OC)[C@H](O)[C@@H](C)/C=C(\C)[C@@H]1OC(N)=O)C2=O | 650 | 410 | – | – | – | – | –
15 | C=CCNC1=C2C[C@@H](C)C[C@H](OC)[C@H](O)[C@@H](C)/C=C(\C)[C@H](OC(N)=O)[C@@H](OC)/C=C\C=C(/C)C(=O)NC(=CC1=O)C2=O [TANESPIMYCIN] | – | 160 | – | 35 | 57 | 66.6 | 237.4
16 | COc1ccc(CNC2=C3C[C@@H](C)C[C@H](OC)[C@H](O)[C@@H](C)/C=C(\C)[C@H](OC(N)=O)[C@@H](OC)/C=C\C=C(/C)C(=O)NC(=CC2=O)C3=O)cc1OC | 360 | > 10000 | – | – | – | – | –
17 | COc1cccc(CNC2=C3C[C@@H](C)C[C@H](OC)[C@H](O)[C@@H](C)/C=C(\C)[C@H](OC(N)=O)[C@@H](OC)/C=C\C=C(/C)C(=O)NC(=CC2=O)C3=O)c1 | 880 | 2670 | – | – | – | – | –
